Test results published in US20080275134A1, “Methods for Treatment of Retinal Degenerative Disease” (University of Washington, priority 2005, published 2008).
One block for each compound: values may come before it.

Key:
isomerase = target: T1, isomerase (Bos taurus, UniProt Q28175); test: isomerase reaction: 11-cis-retinol production by RPE microsomes from all-trans-retinol; format: biochemical, bovine; settings: for IC50 / inhibition of isomerization (in words): RPE microsomes; for IC50: all-trans-retinol substrate, read-out: IC50, inhibition of 11-cis-retinol production; for inhibition of isomerization (in words): in vitro; for lowering of potency by saturation of the C13-14 double bond: relative to the 11-cis- and all-trans-isomers of Ret-NH2
T1 construct: Purified RPE microsomes were the source of the enzymes; from tissue; host or cells: bovine retinal pigment epithelium microsomes
T1 sequence (Q28175 2-533 limits assumed): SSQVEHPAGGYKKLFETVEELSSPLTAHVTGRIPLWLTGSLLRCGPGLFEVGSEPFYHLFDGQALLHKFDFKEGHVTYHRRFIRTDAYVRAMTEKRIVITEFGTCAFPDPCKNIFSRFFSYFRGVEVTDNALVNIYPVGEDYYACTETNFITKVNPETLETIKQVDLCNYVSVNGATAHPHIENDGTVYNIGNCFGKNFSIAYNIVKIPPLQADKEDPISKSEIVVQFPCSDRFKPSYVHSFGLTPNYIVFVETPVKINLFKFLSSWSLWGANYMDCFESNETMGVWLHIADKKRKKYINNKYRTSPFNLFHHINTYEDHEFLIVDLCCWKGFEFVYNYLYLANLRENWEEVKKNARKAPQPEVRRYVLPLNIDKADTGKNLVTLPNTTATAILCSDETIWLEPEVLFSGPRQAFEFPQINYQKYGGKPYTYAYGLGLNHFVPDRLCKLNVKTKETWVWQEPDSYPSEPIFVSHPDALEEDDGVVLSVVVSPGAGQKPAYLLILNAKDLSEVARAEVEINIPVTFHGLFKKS
Description: (§1) To test if 11-cis-retinylamine (11-cis Ret-NH2) affects isomerization and esterification, an in vitro assay was employed. In this assay both of the all-trans-retinyl esters formed in the reaction catalyzed by LRAT and 11-cis-retinol production by isomerase were measured (6). Purified RPE microsomes were the source of the enzymes, and all-trans-retinol was the substrate. […] Inhibition of isomerization by Ret-NH2 is not due to binding of CRALBP or competition with 11-cis-retinol for binding to CRALBP. […] An increased concentration of all-trans-retinol lowered the level of inhibition, as illustrated in FIG. 2B. […] Dixon's and Lineweaver-Burk plots in the standard assay conditions yielded Ki=0.1 μM for Ret-NH2 when all-trans-retinol (KM=0.3 μM) was assumed to be a substrate. […] This estimated value reflects the very potent nature of the inhibition by 11-cis-Ret-NH2.
Materials—Fresh bovine eyes were obtained from a local slaughterhouse (Schenk Packing Co., Inc., Stanwood, Wash.). Preparation of bovine RPE microsomes was performed according to previously described methods (Stecher et al., J Biol Chem 274:8577-85, 1999). All chemicals were purchased from Sigma-Aldrich (St. Louis, Mo.). 11-cis-Retinal was obtained from Dr. Rosalie Crouch (Charleston, S.C.).
Reaction conditions for isomerase and LRAT reaction—The isomerase reaction was performed essentially as described previously (Stecher et al., J Biol Chem 274:8577-85, 1999). The reaction was carried out in 10 mM BTP buffer, pH 7.5, 1% BSA, containing 1 mM ATP and 6 μM apo-CRALBP. To investigate inhibition properties of Ret-NH2 and its derivatives, RPE microsomes were preincubated for 5 min in 37° C. with the indicated compound in 10 mM BTP buffer, pH 7.5, 1% BSA, 1 mM ATP prior to addition of apo-CRALBP and all-trans-retinol. Ret-NH2 and its derivatives were delivered to the reaction mixture in 1 μl of DMF, and the same volume of DMF was added to the control reaction. Each experiment was performed three times in duplicate. The average values were used and the standard deviations were calculated.

LRAT = target: T2, LRAT (Bos taurus, UniProt Q9BGL2); test: LRAT reaction: formation of all-trans-retinyl esters by RPE microsomes; format: biochemical, bovine; settings: all-trans-retinol substrate
T2 construct: Purified RPE microsomes were the source of the enzymes; from tissue; host or cells: bovine retinal pigment epithelium microsomes
T2 sequence (Q9BGL2 1-230): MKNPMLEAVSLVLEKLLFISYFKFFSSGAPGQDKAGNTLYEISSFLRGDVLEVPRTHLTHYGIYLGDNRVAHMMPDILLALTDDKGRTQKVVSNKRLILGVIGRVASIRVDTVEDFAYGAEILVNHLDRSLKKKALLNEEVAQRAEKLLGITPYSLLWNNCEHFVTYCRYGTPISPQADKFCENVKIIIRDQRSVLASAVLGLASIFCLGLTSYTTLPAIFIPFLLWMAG
Description: as §1
Materials—Fresh bovine eyes were obtained from a local slaughterhouse (Schenk Packing Co., Inc., Stanwood, Wash.). Preparation of bovine RPE microsomes was performed according to previously described methods (Stecher et al., J Biol Chem 274:8577-85, 1999). […]
Reaction conditions for isomerase and LRAT reaction—The isomerase reaction was performed essentially as described previously (Stecher et al., J Biol Chem 274:8577-85, 1999). […] The average values were used and the standard deviations were calculated.

CRALBP = CRALBP (Homo sapiens, UniProt P12271); test: analysis of retinoids bound to CRALBP isolated from the reaction mixture; format: binding
CRALBP, sequence (P12271 whole entry, species assumed): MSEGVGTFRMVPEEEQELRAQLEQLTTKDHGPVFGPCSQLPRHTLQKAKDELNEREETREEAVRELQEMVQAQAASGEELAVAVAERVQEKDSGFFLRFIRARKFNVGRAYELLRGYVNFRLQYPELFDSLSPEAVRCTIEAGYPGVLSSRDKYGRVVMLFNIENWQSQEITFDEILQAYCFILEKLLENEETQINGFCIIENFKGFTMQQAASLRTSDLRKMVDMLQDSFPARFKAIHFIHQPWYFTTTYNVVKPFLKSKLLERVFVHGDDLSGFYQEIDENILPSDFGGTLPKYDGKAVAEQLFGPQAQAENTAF

[1] = test system: regeneration of vision chromophore (11-cis-retinal); test: regeneration of 11-cis-retinal in mouse eyes after gavage and light bleach, HPLC retinoid analysis; format: in vivo; settings: gavage in vegetable oil, 16 hours dark, light stimulated, 5 hours dark
Description: Mice were gavaged with all-trains-Ret-NH2, exposed to intense light for 20 min, and then allowed to recover in the dark for 5 hours. The total amount of different forms of retinoids in all experiments was unchanged. […] For this experiment mice were treated with both 9-cis-retinol and all-trans-Ret-NH2, and bleached after 24 hours, and were allowed to recover for 5 hours in the dark. The presence of 9-cis-retinal was confirmed in treated animals (see peaks 4 and 4′ in FIG. 4A bottom panel, corresponding to syn- and anti-9-cis-retinal oximes, respectively). 11-cis-Retinal was not reduced and/or esterified after treatment with Ret-NH2. […] This supports the idea that Ret-NH2 is a specific inhibitor of the isomerization reaction.
A. Chromatographic separation of nonpolar retinoids from WT mouse eyes. Mice were gavaged with all-trans-Ret-NH2 24 hours prior to bleaching for 20 min at 150 cd·m^−2 W in the Ganzfeld chamber. Regeneration of 11-cis-retinal was allowed for 24 hours in the dark, and retinoids were extracted from the eye and separated by normal phase HPLC as described in Materials and Methods. The peaks were identified based on elution time and absorption spectra correspond to the following retinoids: 1, all-trans-retinyl esters; 2,2′, syn- and anti-11-cis-retinal oximes; 3, syn-all-trans-retinal oxime; 4,4′, syn- and anti-9-cis-retinal oximes; 5, all-trans-retinol. B. Changes of 11-cis-retinal oxime levels at increasing doses of all-trans-Ret-NH2 during 5 hours or 24 hours of dark adaptation. Square indicates the level of 11-cis-retinal oximes that was present in mice gavaged with vegetable oil without retinoids just after bleaching, and arrow indicates the increase of visual chromophore during 5 hours of dark adaptation. Triangles correspond to the level of 11-cis-retinal found in the mice gavaged with 50 mg/kg of 13-cis-RA. C and D. Single flash ERG responses of increasing intensity for all-trans-Ret-NH2 treated mice and control mice. Serial responses to increasing flash stimuli were obtained for all-trans-Ret-NH2 treated and control mice for selected intensities (C) and plotted as a function of a-wave and b-wave versus varying light intensities under dark-adapted conditions (D) before bleach and at 5 hours and 24 hours after bleach. The dark-adapted mice were bleached with intense constant illumination (150 cd·m^−2) for 20 min. […] SE bars are shown.
Chromatographic separation of nonpolar retinoids from WT mouse eyes. Mice were gavaged with 100 mg/kg of all-trans-Ret-NH2 24 hours prior to bleaching. Mice were next exposed to 500 cd m^−2 for 48 min bleaching in the Ganzfeld chamber. Regeneration of 11-cis-retinal was allowed for 24 hours in the dark, and retinoids were extracted from the eye and separated by normal phase HPLC as described in Materials and Methods. The peaks identified based on elution time and absorption spectra correspond to the following retinoids: 1, all-trans-retinyl esters; 2,2′, syn- and anti-1-cis-retinal oximes; 3,3′ syn- and anti-all-trans-retinal oximes; 4, all-trans-retinol.
Mice were gavaged with the solution of inhibitor in vegetable oil (control—non-treated, RPN—retinylpalmitamide, RAN—retinylacetamide, Ret—NH2-all-trans-retinylamine), kept in dark for 16 hours, then light stimulated and kept in dark for additional 5 hours before their eyes were analyzed.
Mouse retinoid extraction and analysis—Retinoid analysis was performed under dim red light as described previously (Maeda et al., J. Neurochem 85:944-956, 2003; Van Hooser et al., J Biol Chem 277:19173-82, 2002). Mice were gavaged with retinoids as described previously (Van Hooser et al., J Biol Chem 277:19173-82, 2002).

RPE protein(s) = test: gel filtration chromatography of DHPC-solubilized RPE microsome proteins with retinoid; format: binding, bovine; settings: for gel filtration elution position (fractions): Superdex 200, native RPE extract, proteins elute in fractions 18-60
Description: The specificity of Ret-NH2 was further tested by biochemical assays. […] When the RPE microsomes were solubilized with DHPC, the isomerase activity decreased only slightly. Then [^3H]-Ret-NH2 was added to the RPE extract and loaded on a gel filtration column. Proteins were fractionated and eluted between fractions 18 and 60 (FIG. 3A), while the radioactivity was eluted in fractions 36-38. RPE65 was identified by immunoblotting in fractions 23-34 (FIG. 3B). The most abundant proteins in this fraction were identified by mass spectrometry and include glucose phosphate isomerase, D-glyceraldehyde-3-phosphate dehydrogenase, phosphoglycerate mutase, triose phosphate isomerase, enolase, annexin V, calbindin 2, and LRAT. Identification of less abundant proteins is in progress.
RPE microsomes were solubilized with 10 mM DHPC, incubated with 11,12-di[^3H]-all-trans-Ret-NH2 (1 μM), and loaded on a Superdex 200 column equilibrated with Tris/HCl buffer, pH 7.5, containing 4 mM DHPC. Proteins were eluted with a constant flow rate of 0.4 ml/min. The protein and radioactivity levels of 0.4 ml fractions were examined by SDS-PAGE and scintillation counting (A), and immunoblot with anti-RPE65 and anti-LRAT antibodies (B). The star indicates the fraction associated with maximum radioactivity.

Structure (SMILES): CC(C=CC1=C(C)CCCC1(C)C)=CC=CC(C)=CCN (single isomer, unassigned) [9-cis-Ret-NH2, 9-cis-retinylamine]
IC50 (isomerase): 640 nM

Structure (SMILES): CCCCCCCCCCCCCCCC(=O)NC/C=C(C)/C=C/C=C(C)/C=C/C1=C(C)CCCC1(C)C [N-Retinylpalmitamide]
inhibition of isomerization (in words) (isomerase): did not inhibit isomerization
inhibition of isomerization (in words) (isomerase; listed as N-palmitoylretinamide): non-inhibitory
inhibition of regeneration of vision chromophore in mice by retinylamides [1]: potent inhibitors of regeneration in mice
inhibition of regeneration of vision chromophore in mice by retinylamides ([1]; listed as RPN): same as free retinylamine

Structure (SMILES): CC(=O)NC/C=C(C)/C=C/C=C(C)/C=C/C1=C(C)CCCC1(C)C [N-retinylacetamide]
inhibition of isomerization (in words) (isomerase): weakly inhibit the isomerization reaction
gel filtration elution position (fractions) (RPE protein(s)): eluted either in the void volume or with low molecular weight compounds
inhibition of regeneration of vision chromophore in mice by retinylamides [1]: potent inhibitors of regeneration in mice
inhibition of regeneration of vision chromophore in mice by retinylamides ([1]; listed as RAN): same as free retinylamine

Structure (SMILES): CC(C=CC1=C(C)CCCC1(C)C)=CC=CC(C)CCN (centres unmarked) [VIII]
lowering of potency by saturation of the C13-14 double bond (isomerase): about 10 fold

Structure (SMILES): CC1=C(/C=C/C(C)=C/C=CC(C)CCN)C(C)(C)CCC1 (centres unmarked) [VII]
lowering of potency by saturation of the C13-14 double bond (isomerase): about 10 fold

Structure (SMILES): [3H]C(C=C(C)C=CC1=C(C)CCCC1(C)C)=C([3H])C(C)=CCN [[^3H]-Ret-NH2, 11,12-di[^3H]-all-trans-Ret-NH2]
gel filtration elution position (fractions), heat-denaturated proteins (RPE protein(s); control with heat-denaturated proteins): 48-60

Structure (SMILES): CC1=C(/C=C/C(C)=C/C=C/C(C)CCO)C(C)(C)CCC1 (stereo not drawn) [all-trans-13,14-dihydroretinol, reference compound]
inhibition of isomerization (in words) (isomerase): neither all-trans-thioretinol nor all-trans-13,14-dihydroretinol influenced the isomerization

Structure (SMILES): CC1=C(/C=C/C(C)=C/C=C/C(C)=C/CS)C(C)(C)CCC1 [all-trans-thioretinol, reference compound]
inhibition of isomerization (in words) (isomerase): neither all-trans-thioretinol nor all-trans-13,14-dihydroretinol influenced the isomerization

Now from value to compound, other results behind:

IC50 (isomerase): 70 nM
inhibition of isomerization (in words) (isomerase): most potent inhibitor
formation of all-trans-retinyl esters (LRAT activity) (LRAT): not affected
binding to CRALBP (CRALBP): did not reveal any significant levels
Structure (SMILES): CC(C=CC1=C(C)CCCC1(C)C)=CC=CC(C)=CCN (single isomer, unassigned) [11-cis-Ret-NH2, 11-cis-retinylamine]

IC50 (isomerase): 730 nM
Structure (SMILES): CC(C=CC1=C(C)CCCC1(C)C)=CC=CC(C)=CCN (single isomer, unassigned) [13-cis-Ret-NH2, 13-cis-retinylamine]

inhibition of isomerization (in words) (isomerase): higher IC50
Structure (SMILES): CC1=C(/C=C/C(C)=C/C=C/C(C)=C/CNO)C(C)(C)CCC1 [N-hydroxyretinylamine]

Km (isomerase; all-trans-retinol assumed to be a substrate): 0.3 µM
Structure (SMILES): CC1=C(/C=C/C(C)=C/C=C/C(C)=C/CO)C(C)(C)CCC1 [all-trans-retinol, reference compound]
inhibition of isomerization (in words) (isomerase): weakly inhibit the isomerization reaction
gel filtration elution position (fractions) (RPE protein(s)): eluted either in the void volume or with low molecular weight compounds
